# Reference: the supplement of paper PMC10307832
# What was measured:
# Assay in all cases: relative viability (nuclei count vs DMSO), 5 days (fraction); higher = more cells survive
# [1] = compound: C=CCc1cccc(/C=N/NC(=O)CN2CCN(Cc3ccccc3)CC2)c1O [PAC-1] + CC(C)C[C@H](NC(=O)[C@H](Cc1ccccc1)NC(=O)c1cnccn1)B(O)O [Bortezomib] (partner 0.002 µM)
# In short: (§1)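 Relative viability was taken as the ratio of nuclei in treated wells to nuclei in vehicle wells. Lung cancer cell lines in 1536-well plates received compounds by pin tool one day after seeding, either one drug alone or a fixed anchor-drug dose plus five library-drug doses (not always all listed) in √10 steps. Nuclei were counted on 4× images after 5 days of treatment, and values are medians of duplicate plates.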
# [2] = compound: C=CC(=O)Nc1cc(-n2c(=O)ccc3cnc4ccc(-c5ccc(NS(C)(=O)=O)cc5)cc4c32)ccc1C [BMX-IN-1] + Nc1nc2[nH]cc(CCc3ccc(C(=O)N[C@@H](CCC(=O)O)C(=O)O)cc3)c2c(=O)[nH]1 [Pemetrexed] (partner 0.2 µM)
# In short: as §1
# [3] = compound: C=CCc1cccc(/C=N/NC(=O)CN2CCN(Cc3ccccc3)CC2)c1O [PAC-1] + Cc1cc(Nc2cc(N3CCN(C)CC3)nc(Sc3ccc(NC(=O)C4CC4)cc3)n2)n[nH]1 [Tozasertib] (partner 0.1 µM)
# In short: as §1
# [4] = compound: C=CCc1cccc(/C=N/NC(=O)CN2CCN(Cc3ccccc3)CC2)c1O [PAC-1] + CS(=O)(=O)CCNCc1ccc(-c2ccc3ncnc(Nc4ccc(OCc5cccc(F)c5)c(Cl)c4)c3c2)o1 [Lapatinib] (partner 2 µM)
# In short: as §1
# [5] = compound: C=CCc1cccc(/C=N/NC(=O)CN2CCN(Cc3ccccc3)CC2)c1O [PAC-1] + COc1cc2c(Oc3ccc(NC(=O)C4(C(=O)Nc5ccc(F)cc5)CC4)cc3F)ccnc2cc1OCCCN1CCOCC1 [Foretinib] (partner 0.25 µM)
# In short: as §1
Cell Line,relative viability ([1]; first compound 0.02 µM),relative viability ([1]; first compound 0.06325 µM),relative viability ([1]; first compound 0.2 µM),relative viability ([1]; first compound 2 µM),relative viability ([2]; first compound 0.02 µM),relative viability ([2]; first compound 0.2 µM),relative viability ([2]; first compound 0.6325 µM),relative viability ([2]; first compound 2 µM),relative viability ([3]; first compound 0.02 µM),relative viability ([3]; first compound 0.06325 µM),relative viability ([3]; first compound 0.2 µM),relative viability ([3]; first compound 2 µM),relative viability ([4]; first compound 0.02 µM),relative viability ([4]; first compound 0.06325 µM),relative viability ([4]; first compound 0.2 µM),relative viability ([4]; first compound 2 µM),relative viability ([5]; first compound 0.02 µM),relative viability ([5]; first compound 0.06325 µM),relative viability ([5]; first compound 0.2 µM),relative viability ([5]; first compound 2 µM)
NCI-H1650,0.198,0.18,0.183,0.229,0.354,0.354,0.541,0.325,0.361,0.393,0.522,0.375,0.749,0.875,0.675,0.668,0.892,1.31,1.22,0.732
HCC-15,1.03,1.11,1.01,1.04,0.2,0.218,0.192,0.218,0.398,0.458,0.449,0.378,0.907,0.945,0.814,0.861,0.993,1.08,0.985,1.04
UMC-11,0.693,0.55,0.605,0.782,0.92,0.792,0.754,0.754,0.204,0.202,0.212,0.187,0.994,0.987,0.978,1.07,1.06,1.05,1.04,1.01
NCI-H2087,0.739,0.838,0.702,0.95,0.725,0.715,0.669,0.625,0.197,0.252,0.281,0.259,1.07,1.06,0.815,0.922,0.787,1.22,0.959,1.18
NCI-H3122,1.03,1.05,1,0.977,0.203,0.206,0.19,0.19,0.421,0.425,0.394,0.344,1.01,1.03,0.983,0.953,0.958,0.976,0.967,0.89
NCI-H661,0.782,0.816,0.782,0.91,1.02,0.96,0.961,0.899,0.364,0.332,0.348,0.331,0.313,0.541,0.552,0.445,1.05,0.963,0.967,0.957
NCI-H838,0.732,0.717,0.644,0.711,0.255,0.244,0.237,0.236,0.283,0.239,0.262,0.279,0.931,0.968,0.83,1.01,1.06,0.953,1.01,1.06
NCI-H2126,1.08,1.08,1.21,1.18,0.777,0.7,0.705,0.721,0.919,0.829,0.82,0.821,0.745,0.763,0.817,0.816,1.28,1.25,1.15,1.12
NCI-H1651,0.905,0.929,0.88,0.968,0.391,0.642,0.781,0.486,0.615,0.786,0.631,0.65,0.757,0.8,0.725,0.855,0.796,0.72,0.735,0.917
NCI-H1734,0.904,0.995,0.877,0.955,0.451,0.409,0.407,0.377,0.199,0.256,0.23,0.267,1.12,0.987,1.04,1.01,0.759,0.779,0.762,0.759
NCI-H1915,0.995,0.964,0.907,1.02,0.585,0.522,0.484,0.396,0.421,0.436,0.411,0.428,0.971,0.995,0.917,0.92,1.09,1.08,1.02,1.08
NCI-H2023,1.2,1.04,0.87,1.02,0.285,0.304,0.226,0.26,0.404,0.355,0.382,0.347,1.1,0.849,0.768,0.847,0.824,0.789,0.911,0.773
NCI-H1755,0.99,0.961,0.938,0.907,0.41,0.6,0.39,0.552,0.541,0.587,0.506,0.512,0.987,1.03,1.02,1.05,0.948,0.976,0.948,0.949
EPLC-272H,–,0.895,1.02,1,0.304,0.278,0.235,0.316,0.257,0.314,0.273,0.278,–,1.2,0.978,0.942,0.605,0.683,0.68,0.721
HCC-827,1.1,1.01,1.07,0.978,0.237,0.297,0.287,0.235,0.397,0.401,0.4,0.421,0.193,0.194,0.186,0.198,1.11,1.03,0.964,1.03
NCI-H2085,1.09,1.1,1.14,1.12,0.968,0.823,0.923,0.909,0.787,0.81,0.797,0.796,0.756,0.728,0.707,0.909,0.815,0.932,0.998,1.07

Cell Line,relative viability ([1]; first compound 0.02 µM),relative viability ([1]; first compound 0.06325 µM),relative viability ([1]; first compound 0.2 µM),relative viability ([1]; first compound 2 µM),relative viability ([2]; first compound 0.02 µM),relative viability ([2]; first compound 0.2 µM),relative viability ([2]; first compound 0.6325 µM),relative viability ([2]; first compound 2 µM),relative viability ([3]; first compound 0.02 µM),relative viability ([3]; first compound 0.06325 µM),relative viability ([3]; first compound 0.2 µM),relative viability ([3]; first compound 2 µM),relative viability ([4]; first compound 0.02 µM),relative viability ([4]; first compound 0.06325 µM),relative viability ([4]; first compound 0.2 µM),relative viability ([4]; first compound 2 µM),relative viability ([5]; first compound 0.02 µM),relative viability ([5]; first compound 0.06325 µM),relative viability ([5]; first compound 0.2 µM),relative viability ([5]; first compound 2 µM)
LCLC-97TM1,0.437,0.901,0.668,0.794,0.142,0.191,0.195,0.2,0.22,0.286,0.217,0.225,–,0.796,0.796,0.954,0.989,1,0.945,0.955
EKVX,1.02,1.04,1.03,0.991,0.56,0.448,0.464,0.452,0.426,0.393,0.339,0.365,0.203,0.18,0.208,0.176,0.886,0.792,0.69,0.427
PC-14,0.937,0.953,0.754,0.927,0.121,0.134,0.145,0.134,0.572,0.635,0.63,0.626,0.324,0.315,0.275,0.321,0.932,0.939,0.935,0.92
NCI-H1355,1.15,1.28,1.14,1.2,1.1,1.1,1.06,1.04,0.536,0.568,0.569,0.564,0.97,0.977,0.929,1.11,0.921,0.983,0.936,1.04
NCI-H2009,1.01,0.994,0.897,0.956,1.08,1.06,1.09,1.07,0.816,0.715,0.698,0.696,0.93,0.318,0.855,0.9,1.2,1.23,1.21,1.19
HARA,1.08,1.12,0.853,1.11,0.257,0.271,0.282,0.255,0.108,0.115,0.136,0.111,0.698,0.875,0.796,0.905,0.675,0.833,0.863,0.918
H3255,0.876,0.778,0.861,0.729,0.52,0.583,0.686,0.563,0.66,0.656,0.606,0.638,0.268,0.256,0.246,0.269,0.925,0.814,0.883,0.89
SW 1573,0.947,1.08,1.01,1.13,0.901,1.02,0.931,0.666,0.172,0.184,0.255,0.148,1.05,1.16,1,1.09,0.828,0.741,0.912,0.979
NCI-H1666,0.849,0.809,0.828,0.912,0.908,0.881,0.877,0.867,0.553,0.605,0.615,0.544,0.613,0.608,0.911,0.663,0.975,0.979,0.995,0.95
NCI-H1993,0.975,1.08,1.15,1.09,0.65,0.669,0.645,0.622,0.635,0.541,0.469,0.548,0.774,0.835,0.838,0.887,0.718,0.746,0.608,0.826
HCC-366,1.01,1.04,1.07,1.14,0.163,0.183,0.165,0.202,0.117,0.0944,0.121,0.0773,1.07,1.03,1.06,0.976,0.903,0.925,0.899,0.989
EMC-BAC-2,1.09,1.04,1.11,1.13,0.448,0.486,0.466,0.44,0.297,0.263,0.265,0.274,0.841,0.865,0.899,0.974,0.999,1.04,0.936,0.996
NCI-H1975,0.35,0.396,0.378,0.386,0.321,0.312,0.29,0.279,0.76,0.824,0.748,0.729,0.866,0.871,0.939,0.97,0.933,0.947,1.01,0.932
NCI-H650,0.755,0.871,0.736,0.735,0.926,0.961,0.956,0.919,0.73,0.791,0.749,0.721,1.09,1.05,0.668,0.747,1.08,1.07,0.992,0.988
NCI-H1437,0.513,0.525,0.414,0.383,0.351,0.285,0.34,0.292,0.395,0.391,0.378,0.378,0.758,0.828,0.751,0.679,1.19,1.23,1.3,1.1
